Experimental data from US10980900B2, “Imaging of meningiomas using phenylbenzothiazole, stilbene, or biphenylalkyne derivatives” (MAYO FOUNDATION FOR MEDICAL EDUCATION AND RESEARCH, priority 2010, dated 2021).
“Also recorded” adds a separate entry of the source.

Columns and labels:
[1] = system: meningioma tissue sections; experiment: Fluorescent PiB / 6-CN-PiB staining of meningioma tissue sections; format: binding, human
Source text: (§1) The Department of Pathology, Mayo Clinic Rochester Tumor Tissue Registry, contains tumor samples procured by autopsy and surgery. Meningiomas, brain metastases and other tumors were identified by searching CoPath, a Mayo Clinic electronic pathology database of tumors collected since 1982. Tumor type was confirmed by viewing H&E stained slides under a light microscope.
Fresh cut 5 μm thick sections were used. Each staining run included normal brain and Alzheimer diseased brain as controls. Fluorescent tissue staining and microscopy was performed similar to methods previously described at Ikonomovic M D, Klunk W E, Abrahamson E E, et al., “Post-mortem correlates of in vivo PiB-PET amyloid imaging in a typical case of Alzheimer's disease”, Brain: A Journal Of Neurology 2008; 131:1630-45. Meningioma and other brain tumor sections were stained with 100 nM CN-PiB, 100 nM of unlabeled PiB or with saline alone as a negative control. The staining protocol was as follows: deparaffinization and rehydration, 0.25% KMnO4 incubation, water wash, 1% K2S2O5/1% Oxalic Acid incubation, water wash, PBS wash, 6-CN-PiB/PiB/saline incubation, PBS wash, NaCl, K2HPO4, and KH2PO4 incubation, water wash, mount coverslip, and storage at 4° C. in the dark until imaged. Slides were imaged within five days of staining.
Tissue stain images were obtained on a Zeiss 510 confocal microscope with excitation at 405 nm, a 420-480 bandpass filter, and the laser set at 15% power. Images were obtained with a C-Apochromat 40×/1.2 W lens.

meningiomas [2] = experiment: PiB PET/CT imaging of meningiomas in patients; format: in vivo, human
Source text: (§2) An Alzheimer's imaging database of two hundred forty-one patients was reviewed. […] All patients had been imaged by at least one MRI, as well as by FDG-PET/CT and PET/CT using the compound of formula (V). MRI reports of all patients were reviewed for possible meningiomas and other tumors. […] The diagnostic confidence of the radiologists interpreting the studies varied slightly, depending on factors such as tumor location and previous imaging. […] Tumors smaller than 7 millimeters are generally considered too small to be evaluated by PET or PET/CT. This is an excepted limitation of PET or PET/CT as a modality. […] None of the meningiomas in the series would be classified as atypical or aggressive based on MRI or CT imaging. One presumed extracranial schwannoma was seen, showing mild uptake on FDG-PET/CT, but no uptake on PET/CT using the compound of formula (V).
(§3) The radiologic interpretations of MRI, CT and FDG PET/CT scans from a population of 834 people who participated in the population-based Mayo Clinic Study of Aging (MCSA) from March 2006 through September 2011 were reviewed for the presence of tumors or other brain lesions. (See, Kantarci K, Lowe V, Przybelski S A, et al., “Magnetic resonance spectroscopy, {beta}-amyloid load, and cognition in a population-based sample of cognitively normal older adults”, Neurology 2011; 77:951-8; and Roberts R O, Geda Y E, Knopman D S, et al., “The Mayo Clinic Study of Aging: design and sampling, participation, baseline measures and sample characteristics”, Neuroepidemiology 2008; 30:58-69.) Participants were randomly selected for recruitment in the MCSA from a population of older adult residents of Olmsted County, Minn., USA. Those with neurological, psychological or systemic illnesses were not excluded. Individuals with dementia, or those unable to be imaged for medical reasons were excluded. All patients were imaged with C11-PiB PET/CT, F18-FDG PET/CT and non-contrast MRI at least once as part of the study. Any additional patient imaging and clinical history was then reviewed.
Tumors found in any of the subjects were then categorized as possible meningiomas or non-meningiomas based on the reading of the reporting neuroradiologist. Possible meningiomas were further reviewed as a group. A more strict set of criteria were applied to select a subset of the possible meningiomas that were designated “high-likelihood meningiomas” for further analysis and were defined by (1) tumors that were confirmed to be enhancing on diagnostic MRI (obtained separately for clinical purposes) and (2) tumors that had greater than two years of follow-up imaging confirming no growth or slow growth (1-2 mm per year). When the lead diagnosis of the identified tumor was metastasis, the diagnosis was confirmed by biopsy or autopsy. All tumors smaller than 5 mm thick were excluded, given they fall below the generally accepted lower limits of PET/CT resolution.
PET imaging was performed as part of the Mayo Clinic Study of Aging as previously described. (See Kantarci K, Lowe V, Przybelski S A, et al., “Magnetic resonance spectroscopy, {beta}-amyloid load, and cognition in a population-based sample of cognitively normal older adults”, Neurology 2011; 77:951-8.) PiB PET/CT, then FDG PET/CT were performed on the same day. PET/CT imaging was performed on a 690XT or DRX PET/CT tomograph (GE Healthcare). The PET sinograms were reconstructed using a fully-3D OSEM algorithm into a 30 cm field of view; the pixel size was 1.2 mm and the slice thickness was 3.27 mm (DRX) or 1.96 mm (690XT). CT imaging was obtained immediately prior to PET acquisition and used for attenuation correction. Cerebral PiB retention, a marker of amyloid deposition, was measured as previously described. (See Kantarci K, Lowe V, Przybelski S A, et al. “Magnetic resonance spectroscopy, {beta}-amyloid load, and cognition in a population-based sample of cognitively normal older adults”, Neurology 2011; 77:951-8.) […]

[3] = system: non-meningioma tumors and lesions; experiment: PiB PET/CT imaging of non-meningioma tumors and lesions in patients; format: in vivo, human
Source text: as §2, §3
Tumors found in any of the subjects were then categorized as possible meningiomas or non-meningiomas based on the reading of the reporting neuroradiologist. Possible meningiomas were further reviewed as a group. […]
PET imaging was performed as part of the Mayo Clinic Study of Aging as previously described. […] Cerebral PiB retention, a marker of amyloid deposition, was measured as previously described. […]

[4] = PiB PET/CT activity in normal tissues near the tumors; format: in vivo, human
Source text: as §3
PET imaging was performed as part of the Mayo Clinic Study of Aging as previously described. (See Kantarci K, Lowe V, Przybelski S A, et al., “Magnetic resonance spectroscopy, {beta}-amyloid load, and cognition in a population-based sample of cognitively normal older adults”, Neurology 2011; 77:951-8.) PiB PET/CT, then FDG PET/CT were performed on the same day. PET/CT imaging was performed on a 690XT or DRX PET/CT tomograph (GE Healthcare). The PET sinograms were reconstructed using a fully-3D OSEM algorithm into a 30 cm field of view; the pixel size was 1.2 mm and the slice thickness was 3.27 mm (DRX) or 1.96 mm (690XT). CT imaging was obtained immediately prior to PET acquisition and used for attenuation correction. Cerebral PiB retention, a marker of amyloid deposition, was measured as previously described. […]

[5] = system: other intracranial tumors (schwannoma, metastasis) tissue sections; experiment: Fluorescent 6-CN-PiB staining of other intracranial tumor tissue sections; format: binding, human; conditions: some other tumors, different staining pattern
Source text: as §1
Fresh cut 5 μm thick sections were used. Each staining run included normal brain and Alzheimer diseased brain as controls. Fluorescent tissue staining and microscopy was performed similar to methods previously described at Ikonomovic M D, Klunk W E, Abrahamson E E, et al., “Post-mortem correlates of in vivo PiB-PET amyloid imaging in a typical case of Alzheimer's disease”, Brain: A Journal Of Neurology 2008; 131:1630-45. Meningioma and other brain tumor sections were stained with 100 nM CN-PiB, 100 nM of unlabeled PiB or with saline alone as a negative control. The staining protocol was as follows: deparaffinization and rehydration, 0.25% KMnO4 incubation, water wash, 1% K2S2O5/1% Oxalic Acid incubation, water wash, PBS wash, 6-CN-PiB/PiB/saline incubation, PBS wash, NaCl, K2HPO4, and KH2PO4 incubation, water wash, mount coverslip, and storage at 4° C. in the dark until imaged. Slides were imaged within five days of staining. […]

meningiomas [6] = experiment: FDG PET/CT imaging of meningiomas in patients; format: in vivo, human
Source text: (§4) An Alzheimer's imaging database of two hundred forty-one patients was reviewed. […] MRI reports of all patients were reviewed for possible meningiomas and other tumors. […] Tumors smaller than 7 millimeters are generally considered too small to be evaluated by PET or PET/CT.
as §3
(§5) PET imaging was performed as part of the Mayo Clinic Study of Aging as previously described. (See Kantarci K, Lowe V, Przybelski S A, et al., “Magnetic resonance spectroscopy, {beta}-amyloid load, and cognition in a population-based sample of cognitively normal older adults”, Neurology 2011; 77:951-8.) PiB PET/CT, then FDG PET/CT were performed on the same day. PET/CT imaging was performed on a 690XT or DRX PET/CT tomograph (GE Healthcare). […] Cerebral PiB retention, a marker of amyloid deposition, was measured as previously described. […]

non-meningioma tumors = experiment: FDG PET/CT imaging of non-meningioma tumors in patients; format: in vivo, human
Source text: as §4, §3, §5

[7] = meningiomas 5 mm and thicker vs all other tumors in the 834 patient population

Compound: [11CH3]Nc1ccc(-c2nc3ccc(O)cc3s2)cc1 [Formula (V), [N-Methyl-^11C]2-(4′-methylaminophenyl)-6-hydroxybenzothiazole]
- staining of tissue sections ([1]; tissue sections from meningiomas, 100 nM unlabeled PiB): brightly positive
- SUVmax (by body weight), range (meningiomas [2]; 16 high-likelihood meningiomas, PiB PET/CT): 1.4-3.6
- result on repeat PET/CT imaging (meningiomas [2]; Example 3: one patient imaged two times, many months in between): same positive results
- activity at the meningioma on PET and CT images (meningiomas [2]; Patient #1, mass along right tentorium cerebelli (FIG. 1)): intense activity
- activity at the meningioma on PET and CT images (meningiomas [2]; Patient #4, mass along tuberculum sellae and planum sphenoidale (FIG. 2)): intense activity
- result on PiB PET/CT imaging (meningiomas [2]; all 16 high-likelihood meningiomas): clearly diagnostically positive
- PiB activity relative to normal adjacent tissues (meningiomas [2]; all 16 meningiomas identified by strict imaging criteria): greater than normal adjacent tissues
- sensitivity of PiB PET/CT for meningiomas (meningiomas [2]; [7]): 100%
- specificity of PiB PET/CT for meningiomas (meningiomas [2]; [7]): 100%
- SUVmax of meningioma on repeat imaging (meningiomas [2]; two patients imaged with PiB PET/CT more than once): stable or increasing
- PiB activity relative to normal adjacent tissue ([3]; all other intracranial tumors imaged (metastases, pituitary macroadenomas, schwannomas, ependymoma)): equal or less than normal adjacent tissue
- result on PiB PET/CT ([3]; both intracranial metastases (FIG. 4), pathologically confirmed): negative
- result on research PiB PET/CT ([3]; melanoma metastasis case): negative
- PiB activity ([3]; non-tumorous lesions (strokes, arachnoid cysts, multiple sclerosis lesions)): only trace
- average PiB activity, SUVmax ([4]; nearby normal bone): 0.6
- average PiB activity, SUVmax ([4]; nearby normal grey matter): 1.1
- average background PiB activity, SUVmax ([4]; surrounding cerebrospinal fluid): 0.2

Compound: CNc1ccc(-c2nc3ccc(C#N)cc3s2)cc1 [Formula 6-CN-PiB]
- 6-CN-PiB binding [5]: Moderate
- fluorescent staining ([1]; WHO grade I meningothelial meningioma (FIG. 6 Panel D), 100 nM): positively; also recorded: intense fluorescence
- staining brightness vs other intracranial tumors ([1]; all meningiomas (n=7) vs other intracranial tumors (n=6)): qualitatively brighter

Compound: Fluorodeoxyglucose [FDG]
- FDG activity (meningiomas [6]; 2.6 cm thick meningioma of right tentorium (FIG. 3)): only trace
- FDG PET activity (meningiomas [6]; meningioma in FIG. 4 panels G-I): increased
- FDG activity (meningiomas [6]; seven of the 16 high-likelihood meningiomas): moderate to high
- FDG PET activity (non-meningioma tumors; melanoma and small cell lung cancer metastases (FIG. 4)): increased
- result on FDG PET/CT (non-meningioma tumors; melanoma metastasis case, initial imaging): positive
- result on FDG PET/CT (non-meningioma tumors; pituitary macroadenoma (FIG. 5 Panel B)): positive
